From PubChem BioAssay AID1895 (NMMLSC, 2009)
Calls of active or inactive are those of the source. No rule for the calls is given here.

target: MEK5 PB1 domain binding to MEKK2 (MAP3K2) mutant PB1, human; test: inhibitors of MEK5 binding to mutant MEKK2, dose response, biochemical, bead multiplex flow cytometry (AID 1895); conditions: Bead-based multiplex flow cytometry

Row | SMILES | EC50
1 | COc1ccc(CNC[C@@H](CCCCN(C)Cc2ccc(OC)cc2)N2C[C@H](c3ccccc3)N(CCc3ccc(Cl)c(Cl)c3)C(=O)C2=O)cc1 | > 30 µM (inactive)
2 | CCN1/C(=C/c2ccc3cc(C)ccc3[n+]2C)Sc2ccc3sccc3c21 | > 30 µM (inactive)
3 | CCCCCc1cc(=O)oc2c(C(CCN3CCCC(C)C3)c3ccc4c(c3)OCO4)c(OC)cc(OC)c12 (centres undefined) | > 30 µM (inactive)
4 | CCN1C(c2ccccc2)=C(c2ccccc2)S/C1=C/C=C1\SC(=S)N(C)C1=O | inactive
5 | COCCNC(=O)CN(c1cc(Cl)ccc1OC)S(=O)(=O)c1ccc(C)c([N+](=O)[O-])c1 | > 30 µM (inactive)
6 | CCOC(=O)N1CCN(c2c(N3CCN(c4ccccc4F)CC3)c(=O)c2=O)CC1 | > 30 µM (inactive)
7 | O=C1c2ccccc2-c2onc3ccc(NCCCn4ccnc4)c1c23 | > 30 µM (inactive)
8 | CCCCCCCCCCCCCCCC[n+]1ccc(/C=N/O)cc1 | 8.61 µM
9 | NC(N)=N/N=C/c1ccc(OCc2ccc(Cl)cc2Cl)cc1 | 2.66 µM
10 | C=CCN1C(=O)/C(=C/c2ccc(-c3ccc(F)cc3)o2)SC1=S | inactive
11 | COCc1c(C#N)c(NCCc2ccccc2)nc(C)c1[N+](=O)[O-] | > 30 µM (inactive)
12 | FC(F)(F)c1cccc(NC(=S)N(CCCN2CCCC2)Cc2cccn2Cc2ccc(Cl)cc2)c1 | 7.06 µM
13 | Cc1cc2cc(CNC(=O)NC3CCCCC3)ccc2[nH]1 | > 30 µM (inactive)
14 | CCN1CCN(CCNC(=O)c2ccc(/C=C3/Sc4ccccc4N(Cc4cccc(Cl)c4)C3=O)cc2)CC1 | 6.53 µM
15 | Cc1ccc(-c2c[n+](CC(=O)Nc3nc(-c4ccc(F)cc4)cs3)c3n2CCC3)cc1 | > 30 µM (inactive)
16 | C#CCOCCOCCOCCNc1nc(N2CCN(C(=O)C([C@@H](C)CC)n3cc(C(N)COC(=O)C(F)(F)F)nn3)CC2)nc(N2CCN(C(=O)[C@H](CCCCN)n3cc(C(N)[C@H](C)CC)nn3)CC2)n1 (some centres undefined) | > 30 µM (inactive)
17 | CCN(CC)CCOC(=O)c1ccc(N/C=C(/C#N)c2nc(-c3ccc(OC)c(OC)c3)cs2)cc1 | > 30 µM (inactive)
18 | CCCCCc1cc(=O)oc2c(C(CCN3CCCC3)c3ccc(N(C)C)cc3)c(OC)cc(OC)c12 (centres undefined) | 26.4 µM
19 | C=CC#CC[N+]1(CC#Cc2ccccc2)CCOCC1 | > 30 µM (inactive)
20 | CCN(CC)CCOC(=O)c1ccc(N/C=C(/C#N)c2nc(-c3cccc(OC)c3)cs2)cc1 | > 30 µM (inactive)
21 | C#CCOCCOCCOCCNc1nc(N2CCN(C(=O)[C@H](Cc3cc4ccccc4[nH]3)n3cc([C@@H](N)C(C)CC)nn3)CC2)nc(N2CCN(C(=O)[C@H](Cc3cc4ccccc4[nH]3)n3cc([C@@H](N)CC(C)C)nn3)CC2)n1 (some centres undefined) | 3.62 µM
22 | CCN1C(c2ccccc2)=C(c2ccccc2)S/C1=C\C=C1/SC(=S)N(C)C1=O | 3.35 µM

Row | SMILES | EC50
23 | CC[C@@H](C)[C@H](CNC)NC[C@@H](Cc1cccc2ccccc12)NCCc1cccc(C(F)(F)F)c1 | > 30 µM (inactive)
24 | CN(C)CCCN(C(=O)c1ccc2c(c1)CCCC2)c1nc2ccc(Cl)cc2s1 | > 30 µM (inactive)
25 | CCCCCc1cc(=O)oc2c(C(CCN3CCCCC3)c3ccc(OC)cc3)c(OC)cc(OC)c12 (centres undefined) | > 30 µM (inactive)
26 | CCC(=C/c1sc2ccc3ccccc3c2[n+]1C)/C=C1\Sc2ccc3ccccc3c2N1C | inactive
27 | CC(C)n1cc(CN2CCC(C(=O)Nc3cccc(-c4cccc(Cl)c4)c3)CC2)cn1 | > 30 µM (inactive)
28 | O=C1c2ccccc2-c2onc3ccc(NCc4ccco4)c1c23 | > 30 µM (inactive)
29 | CCN1/C(=C/C(C)=C/c2sc3ccccc3[n+]2CC)Sc2ccccc21 | > 30 µM (inactive)
30 | C#CCOCCOCCOCCNc1nc(N2CCN(C(=O)[C@H]([C@@H](C)CC)n3cc([C@@H](N)CO)nn3)CC2)nc(N2CCN(C(=O)[C@H](Cc3cc4ccccc4[nH]3)n3cc([C@@H](N)Cc4ccc(O)cc4)nn3)CC2)n1 | inactive
31 | CCOc1cccc2sc(N(CCCN(C)C)C(=O)c3ccc(S(=O)(=O)N4CCc5ccccc5C4)cc3)nc12 | 12.1 µM
32 | CCN(CC)CCOC(=O)c1ccc(N/C=C(/C#N)c2nc(-c3cc4ccccc4oc3=O)cs2)cc1 | 4.9 µM
33 | CCCCCCCCCCOC(=O)Cn1c(COc2ccccc2C)[n+](C)c2ccccc21 | 1.02 µM
34 | COc1cc(/C=N/NC(=O)c2cc3ccccc3cc2O)ccc1OCCN1CCCCC1 | > 30 µM (inactive)
35 | C#CCOCCOCCOCCNc1nc(N2CCN(C(=O)[C@H]([C@@H](C)CC)n3cc([C@@H](N)CC(C)C)nn3)CC2)nc(N2CCN(C(=O)[C@H](Cc3cc4ccccc4[nH]3)n3cc([C@@H](N)Cc4ccc(O)cc4)nn3)CC2)n1 | > 30 µM (inactive)
36 | O=[N+]([O-])c1ccc(/C=C/C2=NN(c3ccccc3)C(c3ccco3)C2)o1 (centres undefined) | > 30 µM (inactive)
37 | Nc1cc2nc[nH]c2cc1N | inactive
38 | C#CCOCCOCCOCCNc1nc(N2CCN(C(=O)[C@H]([C@@H](C)CC)n3cc([C@@H](N)Cc4ccc(O)cc4)nn3)CC2)nc(N2CCN(C(=O)[C@H](CCCCN)n3cc([C@@H](N)CC(C)C)nn3)CC2)n1 | 14.7 µM
39 | CCN(CC)CCNC(=O)c1ccc(NC(=O)c2cn(-c3ccccc3)nc2-c2cccs2)cc1 | 5.01 µM
40 | C#CCOCCOCCOCCNc1nc(N2CCN(C(=O)[C@H](Cc3cc4ccccc4[nH]3)n3cc([C@@H](N)CC(C)C)nn3)CC2)nc(N2CCN(C(=O)[C@H](Cc3cc4ccccc4[nH]3)n3cc([C@@H](N)CC(C)C)nn3)CC2)n1 | 1.44 µM
41 | COC(=O)C1=C(C)N(Cc2ccccc2)C(=NCc2cccc(C(F)(F)F)c2)N[C@H]1c1cccc(F)c1 | 13.8 µM
42 | Cc1cc2ccccc2n1CCNC(=O)c1ccc(Br)o1 | inactive
43 | CCCCCCCCCCOC(=O)Cn1c(COc2ccccc2OC)[n+](C)c2ccccc21 | > 30 µM (inactive)
44 | CN(C)c1ccc(NC(=O)CN2CCC(O)(c3ccccc3)CC2)cc1 | > 30 µM (inactive)
